In ChEMBL document CHEMBL4052645, “Discovery of potent and efficacious pyrrolopyridazines as dual JAK1/3 inhibitors” (Bioorg Med Chem Lett, 2017):

Key:
[1] = biological target: 5'-AMP-activated protein kinase catalytic subunit alpha-2 (Homo sapiens) (UniProt P54646); assay: Inhibition of wild-type human partial length AMPK alpha2 (M1 to E306 residues) expressed in bacterial expression system assessed as residual activity at 50 nM by Kinomescan method relative to control
[2] = biological target: Receptor-interacting serine/threonine-protein kinase 4 (Homo sapiens) (UniProt P57078); assay: Inhibition of wild-type human partial length ANKRD3 (M1 to V303 residues) expressed in mammalian expression system assessed as residual activity at 50 nM by Kinomescan method relative to control
[3] = biological target: Tyrosine-protein kinase ABL1 (Homo sapiens) (UniProt P00519); assay: Inhibition of wild-type human phosphorylated ABL1 (S229 to K512 residues) expressed in mammalian expression system assessed as residual activity at 50 nM by Kinomescan method relative to control
[4] = biological target: Calcium/calmodulin-dependent protein kinase type 1D (Homo sapiens) (UniProt Q8IU85); assay: Inhibition of wild-type human partial length CAMK1D (M1 to K299 residues) expressed in bacterial expression system assessed as residual activity at 50 nM by Kinomescan method relative to control
[5] = biological target: Cyclin-dependent kinase 9 (Homo sapiens) (UniProt P50750); assay: Inhibition of wild-type human full length CDK9 (M1 to F372 residues) expressed in bacterial expression system assessed as residual activity at 50 nM by Kinomescan method relative to control
[6] = biological target: Discoidin domain-containing receptor 2 (Homo sapiens) (UniProt Q16832); assay: Inhibition of wild-type human partial length DDR2 (V555 to E855 residues) expressed in mammalian expression system assessed as residual activity at 50 nM by Kinomescan method relative to control
[7] = biological target: Dual specificity mitogen-activated protein kinase kinase 5 (Homo sapiens) (UniProt Q13163); assay: Inhibition of human MAP2K5 (L98 to P448 residues) expressed in mammalian expression system assessed as residual activity at 50 nM by KINOMEscan assay relative to control
[8] = biological target: Serine/threonine-protein kinase Nek4 (Homo sapiens) (UniProt P51957); assay: Inhibition of wild-type human full length NEK4 (M1 to F841 residues) expressed in mammalian expression system assessed as residual activity at 50 nM by Kinomescan method relative to control
JAK3/JAK1 = JAK3/JAK1 (Homo sapiens, UniProt P23458+P52333); assay: Inhibition of JAK1/JAK3 in human whole blood assessed as reduction in IL-2 induced IFN-gamma production after 18 hrs by ELISA; assay type: protein-complex assay
[9] = biological target: Ribosomal protein S6 kinase alpha-5 (Homo sapiens) (UniProt O75582); assay: Inhibition of wild-type human partial length C-terminal MSK1 kinase domain 2 (V390 to T718 residues) expressed in bacterial expression system assessed as residual activity at 50 nM by Kinomescan method relative to control
[10] = biological target: Membrane-associated tyrosine- and threonine-specific cdc2-inhibitory kinase (Homo sapiens) (UniProt Q99640); assay: Inhibition of wild-type human partial length MYT1 (A88 to G366 residues) expressed in bacterial expression system assessed as residual activity at 50 nM by Kinomescan method relative to control
[11] = biological target: Tyrosine-protein kinase FRK (Homo sapiens) (UniProt P42685); assay: Inhibition of wild-type human partial length FRK (A215 to F503 residues) expressed in bacterial expression system assessed as residual activity at 50 nM by Kinomescan method relative to control
[12] = biological target: Serine/threonine-protein kinase LATS2 (Homo sapiens) (UniProt Q9NRM7); assay: Inhibition of wild-type human partial length LATS2 (Q641 to V1088 residues) expressed in mammalian expression system assessed as residual activity at 50 nM by Kinomescan method relative to control
[13] = biological target: Casein kinase II subunit alpha' (Homo sapiens) (UniProt P19784); assay: Inhibition of wild-type human full length CK2A2 (M1 to R350 residues) expressed in mammalian expression system assessed as residual activity at 50 nM by Kinomescan method relative to control
[14] = biological target: Serine/threonine-protein kinase 25 (Homo sapiens) (UniProt O00506); assay: Inhibition of wild-type human partial length YSK1 (V14 to H295 residues) expressed in bacterial expression system assessed as residual activity at 50 nM by Kinomescan method relative to control
[15] = biological target: Mitogen-activated protein kinase kinase kinase 11 (Homo sapiens) (UniProt Q16584); assay: Inhibition of wild-type human partial length MLK3 (I77 to W399 residues) expressed in bacterial expression system assessed as residual activity at 50 nM by Kinomescan method relative to control
[16] = biological target: Phosphorylase b kinase gamma catalytic chain, liver/testis isoform (Homo sapiens) (UniProt P15735); assay: Inhibition of wild-type human partial length PHKG2 (M1 to W300 residues) expressed in bacterial expression system assessed as residual activity at 50 nM by Kinomescan method relative to control
[17] = test system: Phosphatidylinositol 4,5-bisphosphate 3-kinase catalytic subunit alpha isoform (Homo sapiens), P42336 [E545A]; assay: Inhibition of human partial length PIK3CA E545A mutant (R108 to N1068 residues) expressed in mammalian expression system assessed as residual activity at 50 nM by Kinomescan method relative to control
[18] = biological target: Phosphatidylinositol 4,5-bisphosphate 3-kinase catalytic subunit gamma isoform (Homo sapiens) (UniProt P48736); assay: Inhibition of wild-type human partial length PI3KCG (S144 to A1102 residues) expressed in mammalian expression system assessed as residual activity at 50 nM by Kinomescan method relative to control
[19] = biological target: Inhibitor of nuclear factor kappa-B kinase subunit alpha (Homo sapiens) (UniProt O15111); assay: Inhibition of wild-type human full length IKK-alpha (M1 to E745 residues) expressed in mammalian expression system assessed as residual activity at 50 nM by Kinomescan method relative to control
[20] = biological target: Serine/threonine-protein kinase PAK 2 (Homo sapiens) (UniProt Q13177); assay: Inhibition of wild-type human partial length PAK2 (P151 to R525 residues) expressed in bacterial expression system assessed as residual activity at 50 nM by Kinomescan method relative to control
[21] = biological target: Serine/threonine-protein kinase Nek6 (Homo sapiens) (UniProt Q9HC98); assay: Inhibition of wild-type human full length NEK6 (M8 to T313 residues) expressed in bacterial expression system assessed as residual activity at 50 nM by Kinomescan method relative to control
[22] = biological target: Microtubule-associated serine/threonine-protein kinase 1 (Homo sapiens) (UniProt Q9Y2H9); assay: Inhibition of wild-type human partial length MAST1 (S346 to V730 residues) expressed in mammalian expression system assessed as residual activity at 50 nM by Kinomescan method relative to control
[23] = biological target: Myosin light chain kinase, smooth muscle (Homo sapiens) (UniProt Q15746); assay: Inhibition of wild-type human full length SMMLCK (M854 to E1845 residues) expressed in mammalian expression system assessed as residual activity at 50 nM by Kinomescan method relative to control

| SMILES | Activity [1] [%] | Activity [2] [%] | Activity [3] [%] | Activity [4] [%] | Activity [5] [%] | Activity [6] [%] | Activity [7] [%] | Activity [8] [%] | IC50 (JAK3/JAK1) [nM] | Activity [9] [%] | Activity [10] [%] | Activity [11] [%] | Activity [12] [%] | Activity [13] [%] | Activity [14] [%] | Activity [15] [%] | Activity [16] [%] | Activity [17] [%] | Activity [18] [%] | Activity [19] [%] | other results |
| --- | --- | --- | --- | --- | --- | --- | --- | --- | --- | --- | --- | --- | --- | --- | --- | --- | --- | --- | --- | --- | --- |
| COc1ccc(-c2cc3c(N[C@@H]4CC[C@](C)(N)C4(C)C)c(C(N)=O)cnn3c2)cn1 | 74 | 98 | 74 | 100 | 100 | 100 | 34 | 100 | 100 | 100 | 100 | 100 | 94 | 85 | 74 | 100 | 100 | 100 | 100 | 87 | Activity [20]: 77%; Activity [21]: 97%; Activity [22]: 98%; Activity [23]: 87% |
| CC1(C)[C@H](Nc2c(C(N)=O)cnn3cc(-c4ccccc4)cc23)CC[C@]1(C)N | 38 | 59 | 100 | 100 | 93 | 100 | 5 | 52 | 200 | 95 | 79 | 89 | 100 | 92 | 58 | 64 | 67 | 90 | 100 | 100 | Activity [20]: 76%; Activity [21]: 88%; Activity [22]: 100%; Activity [23]: 100% |
